From ChEMBL document CHEMBL1139835, “Novel quinolizidinyl derivatives as antiarrhythmic agents” (J Med Chem, 2007)

Key:
[1] = Negative chronotropic activity assessed as decrease in atrial rate in isolated guinea pig right atrium at 5 uM relative to control; format: functional, Cavia porcellus, Cardiac atrium; parameters: scale not given: the % may be the effect or the level left
[2] = Negative inotropic activity assessed as decrease in developed tension in isolated guinea pig left atrium; format: functional, tissue-based; settings: Cavia porcellus, Cardiac atrium
[3] = Negative inotropic activity assessed as decrease in developed tension in isolated guinea pig left atrium at 10 uM relative to control; format: functional, Cavia porcellus, Cardiac atrium; parameters: scale not given: the % may be the effect or the level left
Aorta = test: Inhibition of calcium-induced contraction of potassium ion depolarized guinea pig aortic strips at 50 uM; format: functional; settings: Cavia porcellus
[4] = Activity against alternating current-induced arrhythmia in guinea pig left atrium at 1 uM; format: functional, Cavia porcellus, Cardiac atrium

EC50 [2]: 600 nM
SMILES: Cc1cc([N+](=O)[O-])cc(C)c1OC[C@H]1CCCN2CCCC[C@H]12
Activity [1]: 25%
Activity [3]: 83%
inhibition at 50 µM (Aorta): 19%
Activity [4]: 23%
